Results: patent US20140336182A1, “Aurora Kinase Modulators and Method of Use” (Amgen Inc., priority 2013, published 2014)
Like-named read-outs stand apart in the source and are kept apart here.

Test system: HeLa cells
Assay: HeLa cell 24 hr ploidy assay (DNA content)
Format: cell-based
Settings: HeLa cells, 4N ploidy, read-out: 24h_4NPloidy EC50_IP (uM Avg)
Outline: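 HeLa cells (1×10^4/well, MEM+10% FBS) cultured 24 h, treated with serially diluted compounds (0.25% DMSO final), then fixed, permeabilized and stained with Hoechst 33342 (0.5 ug/ml). Imaging quantified % 4N and >4N cells; EC50 IP and EC50 transit derived from dose curves.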

[1] = Homo sapiens, HeLa, given as class symbol

Structure (SMILES): COc1cnc2c(Oc3ccc(Nc4nnc(-c5ccnc(Cl)c5)c5ccccc45)cc3)ccnc2c1 [compound 283]
- EC50 (Homo sapiens, HeLa, average): 0.343 µM

Structure (SMILES): COc1cnc2c(Oc3ccc(Nc4nnc(-c5ccc(Cl)cc5)c5ccccc45)cc3F)ccnc2c1 [compound 284]
- EC50 (Homo sapiens, HeLa, average): 0.011 µM

Structure (SMILES): c1ccc(-c2nnc(Nc3ccc(Sc4ccnc5cccnc45)cc3)c3ccccc23)cc1 [compound 285]
- EC50 (average): 0.009 µM

Structure (SMILES): Cc1noc(-c2cc3nccc(Oc4ccc(Nc5nnc(-c6ccc(Cl)cc6)c6ccccc56)cc4)c3s2)n1 [compound 286]
- EC50 (Homo sapiens, HeLa, average): 0.088 µM

Structure (SMILES): C#Cc1ccc(-c2nnc(Nc3ccc(Oc4ccnc5cc(OC)cnc45)cc3)c3ccccc23)cc1 [compound 287]
- EC50 (Homo sapiens, HeLa, average): 0.06 µM

Structure (SMILES): Cc1noc(-c2cc3nccc(Oc4ccc(Nc5nnc(-c6ccccc6)c6ccccc56)cc4)c3s2)n1 [compound 288]
- EC50 (Homo sapiens, HeLa, average): 0.828 µM

Structure (SMILES): Cc1csc(-c2nnc(Nc3ccc(Oc4ccnc5ccsc45)cc3)c3ccccc23)c1 [compound 289]
- EC50 (Homo sapiens, HeLa, average): 0.073 µM

Structure (SMILES): Clc1ccc(-c2nnc(Nc3ccc(Oc4ncnc5[nH]ccc45)cc3)c3ccccc23)cc1 [compound 290]
- EC50 (Homo sapiens, HeLa, average): 0.397 µM

Structure (SMILES): COc1cnc2c(Oc3ccc(Nc4nnc(-c5ccc6c(c5)OC(F)(F)O6)c5ccccc45)cc3)ccnc2c1 [compound 291]
- EC50 (Homo sapiens, HeLa, average): 0.045 µM

Structure (SMILES): COc1ccc2nccc(Sc3ccc(Nc4nnc(-c5ccccc5)c5ccccc45)cc3)c2c1 [compound 292, N-(4-((6-(methyloxy)-4-quinolinyl)thio)phenyl)-4-phenyl-1-phthalazinamine]
- EC50 (Homo sapiens, HeLa, average): 0.012 µM

Structure (SMILES): FC1(F)Oc2ccc(-c3nnc(Nc4ccc(Oc5ccnc6ccsc56)cc4)c4ccccc34)cc2O1 [compound 293]
- EC50 (Homo sapiens, HeLa, average): 0.045 µM

Structure (SMILES): c1ccc(-c2nnc(Nc3ccc(Sc4ccnc5ccccc45)cc3)c3ccccc23)cc1 [compound 294]
- EC50 [1]: < 0.1 µM

Structure (SMILES): Fc1cc(F)c2c(Sc3ccc(Nc4nnc(-c5ccccc5)c5ccccc45)cc3)ccnc2c1 [compound 295]
- EC50 [1]: < 0.1 µM

Structure (SMILES): Cc1noc(-c2cc3nccc(Sc4ccc(Nc5nnc(-c6ccccc6)c6ccccc56)cc4)c3s2)n1 [compound 303, N-(4-((2-(3-methyl-1,2,4-oxadiazol-5-yl)thieno[3,2-b]pyridin-7-yl)thio)phenyl)-4-phenyl-1-phthalazinamine]
- EC50 (Homo sapiens, HeLa, average): 0.25 µM

Structure (SMILES): COc1cnc2c(Sc3ccc(Nc4nnc(-c5ccc(Cl)cn5)c5ccccc45)cc3)ccnc2c1 [compound 304, 4-(5-chloro-2-pyridinyl)-N-(4-((7-(methyloxy)-1,5-naphthyridin-4-yl)thio)phenyl)-1-phthalazinamine]
- EC50 (Homo sapiens, HeLa, average): 0.008 µM

Structure (SMILES): COc1cnc2c(Oc3ccc(Nc4nnc(-c5ccc6c(c5)OCO6)c5ccccc45)cc3)ccnc2c1 [compound 306, 4-(1,3-benzodioxol-5-yl)-N-(4-((7-(methyloxy)-1,5-naphthyridin-4-yl)oxy)phenyl)-1-phthalazinamine]
- EC50 (Homo sapiens, HeLa, average): 0.006 µM

Structure (SMILES): CCc1cc(-c2ccc(C)cc2)nnc1Nc1ccc(Oc2ccnc3cc(OC)cnc23)cc1 [compound 307]
- EC50 (Homo sapiens, HeLa, average): 0.023 µM

Structure (SMILES): Clc1ccc(-c2nnc(Nc3ccc(Sc4ccnc5cccnc45)cc3)c3ccccc23)cc1 [compound 308]
- EC50 (average): 0.006 µM

Structure (SMILES): c1ccc(-c2nnc(Nc3ccc(Sc4ccnc5cccnc45)cc3)c3ccccc23)cc1 [compound 309]
- EC50 (average): 0.021 µM

Structure (SMILES): c1ccc(-c2nnc(Nc3ccc(Sc4ccnc5ccccc45)cc3)c3ccccc23)cc1 [compound 310]
- EC50 (Homo sapiens, HeLa, average): 0.011 µM

Structure (SMILES): Fc1cc(F)c2c(Sc3ccc(Nc4nnc(-c5ccccc5)c5ccccc45)cc3)ccnc2c1 [compound 311]
- EC50 (Homo sapiens, HeLa, average): 0.055 µM

Structure (SMILES): Cc1csc(-c2nnc(Nc3ccc(Sc4ccnc5cc(C(=O)N6CCOCC6)sc45)cc3)c3ccccc23)c1 [compound 312]
- EC50 (Homo sapiens, HeLa, average): 0.032 µM

Structure (SMILES): O=C(c1cc2nccc(Sc3ccc(Nc4nnc(-c5ccccc5)c5ccccc45)cc3)c2s1)N1CCOCC1 [compound 313]
- EC50 (Homo sapiens, HeLa, average): 0.076 µM

Structure (SMILES): O=C(c1cc2nccc(Sc3ccc(Nc4nnc(-c5ccc(Cl)cc5)c5ccccc45)cc3)c2s1)N1CCOCC1 [compound 314]
- EC50 (Homo sapiens, HeLa, average): 0.03 µM

Structure (SMILES): COc1ccc2nccc(Sc3ccc(Nc4nnc(-c5ccc(Cl)cc5)c5ccccc45)cc3)c2c1 [compound 315, 4-(4-chlorophenyl)-N-(4-(6-methoxyquinolin-4-ylthio)phenyl)phthalazin-1-amine]
- EC50 (Homo sapiens, HeLa, average): 0.014 µM

Structure (SMILES): COc1cnc2c(Oc3ccc(Nc4nnc(-c5cc(Cl)cs5)c5ccccc45)cc3)ccnc2c1 [compound 316]
- EC50 (Homo sapiens, HeLa, average): 0.027 µM

Structure (SMILES): COc1cnc2c(Oc3ccc(Nc4nnc(-c5cccc(C)c5)c5ccccc45)cc3)ccnc2c1 [compound 317]
- EC50 (Homo sapiens, HeLa, average): 0.033 µM

Structure (SMILES): COc1ccc2c(Cc3ccc(Nc4nnc(-c5ccccc5)c5ccccc45)cc3)ccnc2c1 [compound 319]
- EC50 (Homo sapiens, HeLa, average): 0.028 µM

Structure (SMILES): CCc1cc(N2CC[C@H]3CCCC[C@@H]3C2)nnc1Nc1ccc(Oc2ccnc3cc(OC)cnc23)cc1 [compound 320]
- EC50 (Homo sapiens, HeLa, average): 0.12 µM

Structure (SMILES): CCc1cc(N2CCCCC2)nnc1Nc1ccc(Oc2ccnc3cc(OC)cnc23)cc1 [compound 321]
- EC50 (Homo sapiens, HeLa, average): > 1.2 µM

Structure (SMILES): CCc1cc(-c2ccc(C)cc2)nnc1Nc1ccc(Sc2ccnc3cc(OC)cnc23)cc1 [compound 322]
- EC50 (Homo sapiens, HeLa, average): 0.017 µM

Structure (SMILES): Cc1noc(-c2cc3nccc(Sc4ccc(Nc5nnc(-c6ccc(Cl)cc6)c6ccccc56)cc4)c3s2)n1 [compound 323]
- EC50 (Homo sapiens, HeLa, average): 0.131 µM

Structure (SMILES): Clc1ccc(-c2nnc(Nc3ccc(Sc4ccnc5cc(Br)cnc45)cc3)c3ccccc23)cc1 [compound 324]
- EC50 (Homo sapiens, HeLa, average): 0.029 µM

Structure (SMILES): COc1cc2c(Oc3ccc(Nc4nnc(-c5ccccc5)c5ccccc45)cc3)ccnc2cc1OCc1ccccc1 [compound 326]
- EC50 (Homo sapiens, HeLa, average): 0.06 µM

Structure (SMILES): COc1cccc(-c2nnc(Nc3ccc(Sc4ccnc5ccccc45)cc3)c3ccccc23)n1 [compound 327]
- EC50 (Homo sapiens, HeLa, average): 0.017 µM

Structure (SMILES): COc1ccc2c(Cc3ccc(Nc4nnc(-c5ccc(Cl)cc5)c5ccccc45)cc3)ccnc2c1 [compound 328]
- EC50 (Homo sapiens, HeLa, average): 0.006 µM

Structure (SMILES): c1ccc(-c2nnc(Nc3ccc(Sc4ccnc5[nH]ccc45)cc3)c3ccccc23)cc1 [compound 329]
- EC50 (Homo sapiens, HeLa, average): 0.057 µM

Structure (SMILES): Clc1ccc(-c2nnc(Nc3ccc(Sc4ccnc5[nH]ccc45)cc3)c3ccccc23)cc1 [compound 330]
- EC50 (Homo sapiens, HeLa, average): 0.016 µM

Structure (SMILES): COc1ccc2c(Sc3ccc(Nc4nnc(-c5ccccc5)c5ccccc45)cc3)ccnc2c1 [compound 331]
- EC50 (Homo sapiens, HeLa, average): 0.021 µM

Structure (SMILES): Clc1ccc(-c2nnc(Nc3ccc(Sc4ccnc5ccsc45)cc3)c3ccccc23)cc1 [compound 332]
- EC50 (Homo sapiens, HeLa, average): 0.001 µM

Structure (SMILES): Clc1ccc(-c2nnc(Nc3ccc(Sc4ccnc5ccccc45)cc3)c3ccccc23)cc1 [compound 333]
- EC50 (Homo sapiens, HeLa, average): ≥ 1.2 µM

Structure (SMILES): COc1ccc2c(Sc3ccc(Nc4nnc(-c5ccc(Cl)cc5)c5ccccc45)cc3)ccnc2c1 [compound 334]
- EC50 (Homo sapiens, HeLa, average): 0.018 µM

Structure (SMILES): CCc1cc(-c2cccc(Cl)c2)nnc1Nc1ccc(Oc2ccnc3cc(OC)cnc23)cc1 [compound 335]
- EC50 (Homo sapiens, HeLa, average): 0.191 µM

Structure (SMILES): Cc1csc(-c2nnc(Nc3ccc(Sc4ccnc5cccnc45)cc3)c3ccccc23)c1 [compound 336]
- EC50 (Homo sapiens, HeLa, average): 0.001 µM

Structure (SMILES): COc1cnc2c(Oc3ccc(Nc4nnc(N5CCSCC5)c5ccccc45)cc3)ccnc2c1 [compound 337]
- EC50 (Homo sapiens, HeLa, average): 0.229 µM

Structure (SMILES): Cn1cc(-c2ccc3c(Oc4ccc(Nc5nnc(-c6ccccc6)c6ccccc56)cc4)ccnc3c2)cn1 [compound 338, N-(4-(7-(1-methyl-1H-pyrazol-4-yl)quinolin-4-yloxy)phenyl)-4-phenylphthalazin-1-amine]
- EC50 (Homo sapiens, HeLa, average): 0.005 µM

Structure (SMILES): c1ccc(-c2nnc(Nc3ccc(Oc4ccnc5cc(-c6ccsc6)ccc45)cc3)c3ccccc23)cc1 [compound 339]
- EC50 (Homo sapiens, HeLa, average): 0.027 µM

Structure (SMILES): c1ccc(-c2nnc(Nc3ccc(Cn4cnc5ccccc54)cc3)c3ccccc23)cc1 [compound 340]
- EC50 (Homo sapiens, HeLa, average): ≥ 1.2 µM

Structure (SMILES): Clc1ccc(-c2nnc(Nc3ccc(Cn4cnc5ccccc54)cc3)c3ccccc23)cc1 [compound 341]
- EC50 (Homo sapiens, HeLa, average): ≥ 1.2 µM

Structure (SMILES): Fc1cc(F)c2c(Sc3ccc(Nc4nnc(-c5ccc(Cl)cc5)c5ccccc45)cc3)ccnc2c1 [compound 342]
- EC50 (Homo sapiens, HeLa, average): 0.044 µM

Structure (SMILES): c1ccc(-c2nnc(Nc3ccc(Oc4ccnc5cc(-c6ccoc6)ccc45)cc3)c3ccccc23)cc1 [compound 343]
- EC50 (Homo sapiens, HeLa, average): 0.025 µM

Structure (SMILES): Cc1ccc(-c2ccc3c(Oc4ccc(Nc5nnc(-c6ccccc6)c6ccccc56)cc4)ccnc3c2)o1 [compound 344]
- EC50 (Homo sapiens, HeLa, average): 0.044 µM

Structure (SMILES): COc1ccc2c(Oc3ccc(Nc4nnc(-c5ccc(Cl)cc5)c5ccccc45)cc3)ccnc2c1 [compound 345]
- EC50 (Homo sapiens, HeLa, average): 0.013 µM

Structure (SMILES): COc1cnc2c(Sc3ccc(Nc4nnc(N5CCCCC5)c5ccccc45)cc3)ccnc2c1 [compound 346]
- EC50 (Homo sapiens, HeLa, average): 0.016 µM

Structure (SMILES): COc1ccc2nccc(Oc3ccc(Nc4nnc(-c5ccccc5)c5ccccc45)cc3)c2n1 [compound 347]
- EC50 (Homo sapiens, HeLa, average): 0.039 µM

Structure (SMILES): COc1ccc2nccc(Sc3ccc(Nc4nnc(-c5ccc(Cl)cc5)c5ccccc45)cc3)c2n1 [compound 348]
- EC50 (Homo sapiens, HeLa, average): 0.012 µM

Structure (SMILES): Clc1ccc(-c2nnc(Nc3ccc(CN4CCOc5ccccc54)cc3)c3ccccc23)cc1 [compound 349]
- EC50 (Homo sapiens, HeLa, average): > 1.2 µM

Structure (SMILES): COc1cnc2c(Oc3ccc(Nc4nnc(-c5cc(C)no5)c5ccccc45)cc3)ccnc2c1 [compound 350]
- EC50 (Homo sapiens, HeLa, average): 0.077 µM

Structure (SMILES): N#Cc1cc2nccc(Sc3ccc(Nc4nnc(-c5ccc(Cl)cc5)c5ccccc45)cc3)c2s1 [compound 351]
- EC50 (Homo sapiens, HeLa, average): 0.053 µM

Structure (SMILES): c1ccc(-c2nnc(Nc3ccc(Sc4ccnc5[nH]ncc45)cc3)c3ccccc23)cc1 [compound 352]
- EC50 (Homo sapiens, HeLa, average): 0.055 µM

Structure (SMILES): COc1cc2nccc(Sc3ccc(Nc4nnc(-c5ccccc5)c5ccccc45)cc3)c2cn1 [compound 353]
- EC50 (Homo sapiens, HeLa, average): 0.007 µM

Structure (SMILES): COc1cc2nccc(Sc3ccc(Nc4nnc(-c5ccc(Cl)cc5)c5ccccc45)cc3)c2cn1 [compound 354]
- EC50 (Homo sapiens, HeLa, average): 0.007 µM

Structure (SMILES): c1ccc(-c2nnc(Nc3ccc(Sc4ccnc5ccsc45)cc3)c3ccccc23)cc1 [compound 355]
- EC50 (Homo sapiens, HeLa, average): 0.015 µM

Structure (SMILES): COc1cnc2c(Sc3ccc(Nc4nnc(-c5ccc(F)cc5)c5ccccc45)cc3)ccnc2c1 [compound 356, 4-(4-fluorophenyl)-N-(4-(7-methoxy-1,5-naphthyridin-4-ylthio)phenyl)phthalazin-1-amine]
- EC50 (Homo sapiens, HeLa, average): 0.007 µM

Structure (SMILES): COc1ccc(-c2nnc(Nc3ccc(Sc4ccnc5cc(OC)cnc45)cc3)c3ccccc23)cc1 [compound 357]
- EC50 (Homo sapiens, HeLa, average): 0.007 µM

Structure (SMILES): CCc1cc(-c2ccc(C)cc2)nnc1Nc1ccc(Sc2ccnc3cccnc23)cc1 [compound 358]
- EC50 (Homo sapiens, HeLa, average): 0.035 µM
